According to US20260070909A1, “GPR65 MODULATORS” (Pathios Therapeutics Limited, priority 2022, published 2026):

Each molecule was assayed against human recombinant GPR65 (Homo sapiens, UniProt Q8IYL9) (assay: Human GPR65 cAMP HTRF antagonist assay). Conditions: not given.
Chain of human recombinant GPR65 (Q8IYL9 whole entry): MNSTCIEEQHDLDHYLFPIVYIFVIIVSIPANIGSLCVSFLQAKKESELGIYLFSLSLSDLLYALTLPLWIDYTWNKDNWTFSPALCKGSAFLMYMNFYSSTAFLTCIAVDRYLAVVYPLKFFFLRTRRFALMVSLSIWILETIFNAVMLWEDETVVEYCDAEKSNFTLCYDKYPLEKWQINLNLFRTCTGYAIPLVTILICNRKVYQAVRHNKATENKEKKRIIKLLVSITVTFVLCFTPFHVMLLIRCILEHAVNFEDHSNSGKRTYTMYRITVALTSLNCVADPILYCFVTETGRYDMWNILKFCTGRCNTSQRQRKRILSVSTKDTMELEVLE
Type: cell-based
From the text: In one preferred embodiment, the compound prevents the increase in cytoplasmic cAMP levels expected following GPR65 activation at acidic pH. This prevention of cAMP accumulation in turn prevents downstream signalling through ICER, as described above. The “Human GPR65 cyclic adenosine monophosphate (cAMP) Homogeneous Time Resolved Fluorescence (HTRF) antagonist assay”, or simply “cAMP assay”, as described in the accompanying examples, can be used to measure the potency of GPR65 modulators, which is expressed as the concentration of compound required to reduce the increase in cAMP concentration upon GPR65 activation by 50% (i.e. an IC50).
Human GPR65 Cyclic Adenosine Monophosphate (cAMP) Homogeneous Time Resolved Fluorescence (HTRF) Antagonist Assay Procedure
IC50 data was obtained by the following procedure:
1321N1 human astrocytoma cells stably expressing human recombinant GPR65 (1321N1-hrGPR65 cells, EuroscreenFast) were cultured according to the vendor's instructions. Compounds were tested for their ability to antagonise GPR65, through measuring the concentration of cytoplasmic cAMP following treatment of the cells at a pH of 7.2 to activate GPR65 signalling and addition of the compound to be tested. The extent to which the expected rise in cAMP concentration upon GPR65 activation was suppressed by the added compound is indicative of its potency. The assay was carried out according to EuroscreenFast assay Methodology as follows.
On the day of the assay, test compounds were added to 384-well, low volume, white microtiter plates by acoustic dispensing. KRH buffer (5 mM KCl, 1.25 mM MgSO4, 124 mM NaCl, 25 mM HEPES, 13.3 mM Glucose, 1.25 mM KH2PO4 and 1.45 mM CaCl2) was adjusted to pH 6.5, pH 7.6 and pH 8.4 by adding NaOH. 1321N1-hGPR65 cells were rapidly thawed and diluted in KRH, pH 7.6 prior to centrifugation at 300×g for 5 min and resuspension in assay buffer (KRH, pH 7.6, supplemented with 1 mM 3-isobutyl-1-methylxanthine (IBMX) and 200 μM ethylenediaminetetraacetic acid (EDTA)). Cells were added to assay plates at a density of 2,000 cells per well in a volume of 5 μl. Assay plates were briefly centrifuged at 100×g and then incubated at room temperature for 30 min. Cells were stimulated by the addition of 5 μL KRH, pH 6.5, to achieve an assay pH of 7.2, while control wells received 5 μl KRH, pH 8.4 to achieve an assay pH of 7.9. Assay plates were briefly centrifuged at 100×g and then incubated at room temperature for 30 min.
Accumulation of cAMP was detected by cAMP HTRF kit (Cisbio). d2-labeled cAMP and cryptate-labeled anti-cAMP antibody in Lysis and Detection Buffer (Cisbio) were added to assay plates, and the plates were incubated at room temperature for 1 h. HTRF measurements were performed using a Pherastar FSX instrument. Acceptor and donor emission signals were measured at 665 nm and 620 nm, respectively, and HTRF ratios were calculated as signal665 nm/signal620 nm×10^4. Data were normalised to high and low control values and fitted with 4-parameter logistic regression to determine hGPR65 IC50 values for the test compounds, which are shown in Table 1.
Molecule `O=C1NN=C2C(=CC3CCC2N3C(=O)Nc2cc(Cl)c(C(F)(F)F)cc2F)N1` (racemic) [Compound 1, (±)-N-(5-Chloro-2-fluoro-4-(trifluoromethyl)phenyl)-3-oxo-3,4,6,7,8,9-hexahydro-2H-6,9-epiminocyclohepta[e][1,2,4]triazine-10-carboxamide] has an IC50 of under 500 nM.
With `O=C1NN=C2C(=CC3CCC2N3C(=O)Nc2cc(Cl)c(-c3cncc(F)c3)cc2F)N1` (racemic) [Compound 2, (±)-N-(5-Chloro-2-fluoro-4-(5-fluoropyridin-3-yl)phenyl)-3-oxo-3,4,6,7,8,9-hexahydro-2H-6,9-epiminocyclohepta[e][1,2,4]triazine-10-carboxamide] the IC50 was under 500 nM.
With `O=C1NN=C2C(=CC3CCC2N3C(=O)Nc2cc(Cl)c(-c3ccc(F)nc3)cc2F)N1` (racemic) [Compound 3, (±)-N-(5-chloro-2-fluoro-4-(6-fluoropyridin-3-yl)phenyl)-3-oxo-3,4,6,7,8,9-hexahydro-2H-6,9-epiminocyclohepta[e][1,2,4]triazine-10-carboxamide] the IC50 was under 500 nM.
For `O=C1NN=C2C(=CC3CCC2N3C(=O)Nc2cc(Cl)c(-c3ccc4nonc4c3)cc2F)N1` (racemic) [Compound 4, (±)-N-(4-(benzo[c][1,2,5]oxadiazol-5-yl)-5-chloro-2-fluorophenyl)-3-oxo-3,4,6,7,8,9-hexahydro-2H-6,9-epiminocyclohepta[e][1,2,4]triazine-10-carboxamide], the IC50 was under 500 nM.
Work on `O=C(Nc1cc(Cl)c(C(F)(F)F)cc1F)N1[C@@H]2C=C3NC(=S)NN=C3[C@H]1CC2` [Compound 7, (6S,9R)-N-(5-Chloro-2-fluoro-4-(trifluoromethyl)phenyl)-3-thioxo-3,4,6,7,8,9-hexahydro-2H-6,9-epiminocyclohepta[e][1,2,4]triazine-10-carboxamide] yielded an IC50 of under 500 nM.
With `O=C1NN=C2C(=C[C@@H]3CC[C@H]2N3C(=O)Nc2cc(Cl)c(C(F)(F)F)cc2F)N1` [Compound 8, (6S,9R)-N-(5-Chloro-2-fluoro-4-(trifluoromethyl)phenyl)-3-oxo-3,4,6,7,8,9-hexahydro-2H-6,9-epiminocyclohepta[e][1,2,4]triazine-10-carboxamide] the IC50 was under 500 nM.
With `CC(C)Oc1ccc(-c2cc(F)c(NC(=O)N3[C@@H]4C=C5NC(=O)NN=C5[C@H]3CC4)cc2Cl)cn1` [Compound 10, (6S,9R)-N-(5-Chloro-2-fluoro-4-(6-isopropoxypyridin-3-yl)phenyl)-3-oxo-3,4,6,7,8,9-hexahydro-2H-6,9-epiminocyclohepta[e][1,2,4]triazine-10-carboxamide] the IC50 was under 500 nM.
Work on `O=C1NN=C2C(=C[C@@H]3CC[C@H]2N3C(=O)Nc2cc(Cl)c(-c3ccc(OCC(F)(F)F)nc3)cc2F)N1` [Compound 11, (6S,9R)-N-(5-Chloro-2-fluoro-4-(6-(2,2,2-trifluoroethoxy)pyridine-3-yl)phenyl)-3-oxo-3,4,6,7,8,9-hexahydro-2H-6,9-epiminocyclohepta[e][1,2,4]triazine-10-carboxamide] yielded an IC50 of under 500 nM.
`O=C1NN=C2C(=C[C@@H]3CC[C@H]2N3C(=O)Nc2cc(Cl)c(-c3ccc4nonc4c3)cc2F)N1` [Compound 13, (6S,9R)-N-(4-(Benzo[c][1,2,5]oxadiazol-5-yl)-5-chloro-2-fluorophenyl)-3-oxo-3,4,6,7,8,9-hexahydro-2H-6,9-epiminocyclohepta[e][1,2,4]triazine-10-carboxamide] was tested, and the IC50 was under 500 nM.

Same assay, conditions: 1321N1-hrGPR65 cells, assay pH 7.2, suppression of cAMP rise, HTRF; read-out: hGPR65 IC50 (activity class)
Molecule `O=C1NN=C2C(=CC3CCC2N3C(=O)Nc2cc(C(F)(F)F)on2)N1` (racemic) [Compound 5, (±)-3-Oxo-N-(5-(trifluoromethyl)isoxazol-3-yl)-3,4,6,7,8,9-hexahydro-2H-6,9-epiminocyclohepta[e][1,2,4]triazine-10-carboxamide] has an IC50 of 500 to 5000 nM.
Molecule `CS(=O)(=O)c1nnc2c(n1)CC1CCC2N1C(=O)Nc1cc(Cl)c(C(F)(F)F)cc1F` (racemic) [Compound 6, (±)-N-(5-Chloro-2-fluoro-4-(trifluoromethyl)phenyl)-3-(methylsulfonyl)-6,7,8,9-tetrahydro-5H-6,9-epiminocyclohepta[e][1,2,4]triazine-10-carboxamide] has an IC50 of 500 to 5000 nM.
Molecule `O=C1NN=C2C(=C[C@H]3CC[C@@H]2N3C(=O)Nc2cc(Cl)c(C(F)(F)F)cc2F)N1` [Compound 9, (6R,9S)-N-(5-Chloro-2-fluoro-4-(trifluoromethyl)phenyl)-3-oxo-3,4,6,7,8,9-hexahydro-2H-6,9-epiminocyclohepta[e][1,2,4]triazine-10-carboxamide] has an IC50 of 500 to 5000 nM.
In the case of `O=C1NN=C2C(=C[C@H]3CC[C@@H]2N3C(=O)Nc2cc(Cl)c(-c3ccc4nonc4c3)cc2F)N1` [Compound 12, (6R,9S)-N-(4-(Benzo[c][1,2,5]oxadiazol-5-yl)-5-chloro-2-fluorophenyl)-3-oxo-3,4,6,7,8,9-hexahydro-2H-6,9-epiminocyclohepta[e][1,2,4]triazine-10-carboxamide], the IC50 is reported as 500 to 5000 nM.
